Measurements published in paper PMC8292346, “Dysfunction of the key ferroptosis-surveilling systems hypersensitizes mice to tubular necrosis during acute kidney injury” (Nature Communications, 2021).
Several values for one entry are separate records, joined by “and”; a condition that tells them apart may be missing. Equal values may be shown once.

Columns and labels:
[1] = system: HT1080 cells; assay: CellTiter-Glo luminescent cell viability assay (ATP), dose-response; format: cell-based, human
Description: Cells were plated in an opaque-walled 96-well plate and treatment with ferroptosis inducers and/or ferroptosis inhibitors was initiated 24 h later. […] Here, the reaction agent was directly added to the wells, mixed on an orbital shaker for 2 min, and then incubated at room temperature for 10 min. The luminescence was detected using a Promega GloMax® instrument.

[2] = system: HT1080 cells; assay: Ferroptosis inducers (FINs)/ferroptocide, 7-AAD/annexin V flow cytometry; format: cell-based, human; conditions: Nec-1s 30 µM, Nec-1f 30 µM; for double-negative events (7-AAD/annexin V): alone (DMSO) or with Fer-1 1 µM
[3] = system: HT29 cells; assay: TSZ-induced necroptosis, 7-AAD/annexin V flow cytometry; format: cell-based, human; conditions: Nec-1f 10 µM
Description: (§1) To induce necroptosis in a human cell line, HT29 cells were stimulated at the indicated time points with 20 ng/ml human TNFα (Biolegend), 1 μM SMAC-mimetics (Birinapant, Chemietek), and 20 μM zVAD-fmk (Selleckchem, herein referred to as zVAD). For the induction of necroptosis in NIH3T3 cells, cells were incubated with 20 ng/ml TNF-α and 20 μM zVAD for indicated time points. […] Cells were seeded in six-well plates or petri dishes. […] After indicated time points, cells were collected and prepared for flow cytometry, immunoblotting, and/or LDH release assays.
(§2) Cells were harvested and the pellets were washed twice in PBS and stained with 5 μl of 7-AAD (BD Biosciences) and 5 μl of annexin-V-FITC (BD Biosciences) added to 100 μl annexin-V binding buffer (BD Biosciences). After 15 min, cells were recorded on the LSRII with the FACS Diva 6.1.1 software (BD Biosciences) and subsequently analyzed with the FlowJo v10 software (Tree Star).

[4] = system: RIPK1; assay: Western blot of pRIPK1 (S166) in TSZ-treated HT29 cells; format: cell-based, human; conditions: Nec-1s 10 µM, Fer-1 1 µM, Nec-1f 10 µM
Description: as §1
(§3) Cells were lysed in ice-cold 10 mM Tris-HCl, pH 7.5, 50 mM NaCl, 1% Triton X-100, 30 mM sodium pyrophosphate, 50 mM NaF, 100 μM Na3VO4, 2 μM ZnCl2, and 1 mM phenylmethylsulfonyl fluoride (PMSF, modified Frackelton buffer) for 30 min on ice. Insoluble material was removed by centrifugation (14 000×g, 30 min, 4 °C). Protein concentration was determined using a commercial Bradford assay kit according to the manufacturer’s instructions (Thermo Fisher). Equal amounts of protein (typically 30 μg per lane) were resolved on a 4%−15% gradient SDS/PAGE gel and transferred to a PVDF membrane (BIO-RAD). Primary antibody incubation was performed for anti-pS166-RIPK1 (Cell Signaling, Cat# 65746, 1:1000 dilution), anti-pS358-MLKL, (Abcam, ab187091, 1:1000 dilution), anti-MLKL (Genetex, GTX107538, 1:1000 dilution) and anti-β-Actin (Cell Signaling, Cat# 3700S, 1:1000 dilution). Secondary antibodies (anti-mouse, HRP-linked antibody, Cell Signaling, Cat# 7076S; anti-rabbit, HRP-linked antibody, Cell Signaling, Cat# 7074S) were applied at concentrations of 1:5.000 (also see Supplementary Table 1 for details). Proteins were then visualized by enhanced chemiluminescence (ECL; Amersham Biosciences).

[5] = system: NIH3T3 cells; assay: Ferroptosis inducers (FINs)/ferroptocide, 7-AAD/annexin V flow cytometry; format: cell-based, murine; conditions: alone (DMSO) or with Fer-1 1 µM, Nec-1s 30 µM, Nec-1f 30 µM
Description: as §1, §2

[6] = system: NIH3T3 cells; assay: as above; format: cell-based, murine; conditions: individual replicates
[7] = system: MLKL; assay: Western blot of pMLKL (S358) in TSZ-treated HT29 cells; format: cell-based, human; conditions: Nec-1s 10 µM, Fer-1 1 µM, Nec-1f 10 µM
Description: as §1, §3

[8] = system: NIH3T3 cells; assay: Simultaneous ferroptosis and necroptosis (RSL3 plus TZ), 7-AAD/annexin V flow cytometry; format: cell-based, murine; conditions: NIH3T3, 16 h
Description: as §1, §2

[9] = system: CD10-135 cells; assay: FINs/ferroptocide, LDH release assay; format: cell-based, human; set-up: LDH release: unit not given here; conditions: Nec-1f 30 µM
[10] = system: Mouse cortical tubule cells (MCT); assay: FINs/ferroptocide, 7-AAD/annexin V flow cytometry; format: cell-based; conditions: MCT, alone (DMSO) or with Fer-1 1 µM, Nec-1s 30 µM, Nec-1f 30 µM
Description: as §1, §2

[11] = system: C57Bl/6 N mice; assay: Bilateral kidney ischemia-reperfusion injury, severe model (38 min ischemia), survival; conditions: single dose 2 mg/kg body weight before reperfusion

CN1C(=O)NC(Cc2c[nH]c3c(Cl)cccc23)C1=O (stereo not drawn) [Nec-1s, necrostatin-1s]
ATP luminescence (CellTiterGlo) ([1]; HT1080 + Erastin, inhibitor concentration 0.01 (unit not given)): 6.2776%
ATP luminescence (CellTiterGlo) ([1]; HT1080 + Erastin, inhibitor concentration 0.1 (unit not given)): 6.426%
ATP luminescence (CellTiterGlo) ([1]; HT1080 + Erastin, inhibitor concentration 1 (unit not given)): 6.611%
ATP luminescence (CellTiterGlo) ([1]; HT1080 + Erastin, inhibitor concentration 10 (unit not given)): 6.739%
ATP luminescence (CellTiterGlo) ([1]; HT1080 + Erastin, inhibitor concentration 30 (unit not given)): 13.0792%
ATP luminescence (CellTiterGlo) ([1]; HT1080 + Ferroptocide, inhibitor concentration 0.01 (unit not given)): 2.171% and 0.348%
ATP luminescence (CellTiterGlo) ([1]; HT1080 + Ferroptocide, inhibitor concentration 0.1 (unit not given)): 7.287% and 1.309%
ATP luminescence (CellTiterGlo) ([1]; HT1080 + RSL3, inhibitor concentration 0.01 (unit not given)): 48.9951% and 58.0398%
ATP luminescence (CellTiterGlo) ([1]; HT1080 + RSL3, inhibitor concentration 0.1 (unit not given)): 48.7049% and 62.3771%
ATP luminescence (CellTiterGlo) ([1]; HT1080 + RSL3, inhibitor concentration 1 (unit not given)): 60.6314% and 81.5005%
ATP luminescence (CellTiterGlo) ([1]; HT1080 + RSL3, inhibitor concentration 10 (unit not given)): 61.8212% and 84.0786%
double-negative events (7-AAD/annexin V) ([2]; HT1080, 1.13 µM RSL3 6 h): 45.5% and 30.5% and 56.9% and 58.4%
double-negative events (7-AAD/annexin V) ([2]; HT1080, 10 µM FIN56 24 h): 88.1% and 85.1% and 82.1%
double-negative events (7-AAD/annexin V) ([2]; HT1080, 10 µM ferroptocide 24 h): 42.7% and 26.5%
Inhibition of cell death induction by FINs/ferroptocide ([2]; HT1080, Fer-1 1 µM): but not by Nec-1s
7-AAD/annexin V flow cytometry, source data of bar graph Fig2e ([3]; HT29, TSZ (TNFα 20 ng/ml, birinapant 1 µM, zVAD-fmk 20 µM) 16 h): 77% and 78.7% and 91.4% and 88.7%
Protection against TSZ-induced necroptosis (7-AAD/annexin V, words) ([3]; HT29, TSZ): maintained double negativity
Phosphorylation of RIPK1 at S166, western blot [4]: prevented phosphorylation at S166 in RIPK1
double-negative events (7-AAD/annexin V) ([5]; NIH3T3, 5 µM erastin 24 h): 10.2% and 2.01% and 4.47% and 2.99%
double-negative events (7-AAD/annexin V) ([5]; NIH3T3, 10 µM FIN56 24 h): 88.9% and 92.9% and 90.2%
double-negative events (7-AAD/annexin V) ([5]; NIH3T3, 10 µM FINO2 24 h): 6.67% and 1.36% and 2.97% and 1.72% and 7.65% and 9.33%
cells in 7-AAD/annexin V flow cytometry (FigS9b) ([6]; Erastin-induced ferroptosis): 17.0% and 14.0% and 10.0%
cells in 7-AAD/annexin V flow cytometry (FigS9b) ([6]; FIN56-induced ferroptosis): 57.0% and 34.0%
cells in 7-AAD/annexin V flow cytometry (FigS9b) ([6]; FINO2-induced ferroptosis): 63.0% and 21.0%
cells in 7-AAD/annexin V flow cytometry (FigS9b) ([6]; Ferroptocide-induced cell death): 80.0% and 5.0%
cells in 7-AAD/annexin V flow cytometry (FigS9b) ([6]; RSL3-induced ferroptosis): 71.0% and 41.0%
Phosphorylation of MLKL (pS358), western blot [7]: comparable between Nec-1s and Nec-1f
Rescue from necrosis induced by RSL3 plus TZ [8]: fail to rescue
LDH release ([9]; CD10-135, FIN56 alone (FIN) or with Fer-1, Nec-1s): 86.05 and 52.2984 and 63.7092
LDH release ([9]; CD10-135, FINO2 alone (FIN) or with Fer-1, Nec-1s): 71.57 and 72.5571 and 70.4933
LDH release ([9]; CD10-135, RSL3 alone (FIN) or with Fer-1, Nec-1s): 64.62 and 54.5823
LDH release ([9]; CD10-135, erastin alone (FIN) or with Fer-1, Nec-1s): 93.98 and 95.3511 and 88.9965
LDH release ([9]; CD10-135, ferroptocide alone (FIN) or with Fer-1, Nec-1s): 100 and 93.4978
double-negative events (7-AAD/annexin V) ([10]; 5 µM erastin 24 h): 60.5% and 85.4% and 84.9% and 77.6%
double-negative events (7-AAD/annexin V) ([10]; 10 µM FIN56 24 h): 93.3% and 88% and 89.2%
Survival after severe renal IRI vs vehicle (Kaplan-Meier, words) [11]: not statistically significant
